Source: ChEMBL document CHEMBL1201862, “PubChem BioAssay data set” (2004)
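Results reflect a 48-hour exposure of cells in 96-well plates to compound at five concentrations. GI50 marks 50% less growth.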 Active and inactive are the calls of the source. No stated cut-off is given here; in the data, active = GI50 up to about 1.1 µM and inactive = higher.

What was measured:
Assay in all cases: NCI anticancer screen, dose series, 48 h
BT-549 = tested on: BT-549
CAKI-1 = tested on: CAKI-1
SK-MEL-5 = tested on: SK-MEL-5
DU-145 = tested on: DU-145
SK-MEL-2 = tested on: SK-MEL-2
MOLT-4 = tested on: MOLT-4
COLO 205 = tested on: COLO 205
TK-10 = tested on: TK-10
HCC 2998 = tested on: HCC 2998
SK-OV-3 = tested on: SK-OV-3
T47D = tested on: T47D
PC-3 = tested on: PC-3
OVCAR-8 = tested on: OVCAR-8
HOP-92 = tested on: HOP-92
HCT-15 = tested on: HCT-15
SN12C = tested on: SN12C
LOX IMVI = tested on: LOX IMVI
RPMI-8226 = tested on: RPMI-8226
NCI-H460 = tested on: NCI-H460
HT-29 = tested on: HT-29

Measured: GI50

Cc1cn(C2CC(O)C(Cn3nncc3Cn3nc(Br)c(=O)[nH]c3=O)O2)c(=O)[nH]c1=O (centres undefined)
inactive: BT-549 > 100 µM | CAKI-1 > 100 µM | SK-MEL-5 > 100 µM | DU-145 > 100 µM | SK-MEL-2 > 100 µM | MOLT-4 > 100 µM | COLO 205 > 100 µM | TK-10 > 100 µM | HCC 2998 > 100 µM | SK-OV-3 > 100 µM | T47D > 100 µM | PC-3 > 100 µM | OVCAR-8 > 100 µM | HOP-92 > 100 µM | SN12C > 100 µM | LOX IMVI > 100 µM | RPMI-8226 > 100 µM
> 100 µM: HCT-15

CCOC(=O)CC/C(=N/Nc1ccc(Cl)cc1[N+](=O)[O-])C(=O)OCC
> 100 µM: HCT-15
inactive: BT-549 > 100 µM | SK-MEL-5 > 100 µM | DU-145 > 100 µM | SK-MEL-2 > 100 µM | MOLT-4 > 100 µM | COLO 205 > 100 µM | TK-10 > 100 µM | NCI-H460 > 100 µM | HCC 2998 26.2 µM | SK-OV-3 > 100 µM | T47D 93.3 µM | PC-3 > 100 µM | OVCAR-8 > 100 µM | HOP-92 11.4 µM | SN12C > 100 µM | LOX IMVI > 100 µM | HT-29 > 100 µM | RPMI-8226 > 100 µM

N#CC1=C(S)N(C2OC(CO)C(O)C(O)C2O)C(c2ccccc2)=CC1c1ccccc1 (centres undefined)
inactive: BT-549 55.2 µM | CAKI-1 > 100 µM | SK-MEL-5 19.8 µM | DU-145 > 100 µM | SK-MEL-2 6.53 µM | MOLT-4 29.8 µM | COLO 205 44.2 µM | TK-10 > 100 µM | NCI-H460 37.6 µM | HCC 2998 18.5 µM | T47D 18.2 µM | PC-3 30.7 µM | OVCAR-8 45.3 µM | HOP-92 31.8 µM | SN12C 72.4 µM | LOX IMVI 28.1 µM | HT-29 48.9 µM | RPMI-8226 46.5 µM
18.8 µM: HCT-15

COC(=O)c1c(OC(C)=O)ccc2c1c1cc3ccccc3c(OC(C)=O)c1n2C
22.7 µM: HCT-15
inactive: BT-549 14.6 µM | CAKI-1 11.8 µM | SK-MEL-5 3.07 µM | DU-145 9.86 µM | SK-MEL-2 29.7 µM | MOLT-4 5.75 µM | COLO 205 21.8 µM | TK-10 28.6 µM | NCI-H460 10.4 µM | HCC 2998 33.6 µM | SK-OV-3 6.65 µM | T47D 4.69 µM | PC-3 30.1 µM | OVCAR-8 14.2 µM | HOP-92 10.3 µM | SN12C 40.6 µM | HT-29 15.2 µM | RPMI-8226 8.63 µM

Cc1c(C#N)c2nnn(-c3ccccc3)c(=O)n2c1-c1ccccc1
active: SK-MEL-5 0.471 µM | COLO 205 0.49 µM
inactive: BT-549 5.42 µM | CAKI-1 2.42 µM | DU-145 1.73 µM | SK-MEL-2 4.53 µM | MOLT-4 1.58 µM | TK-10 > 59.6 µM | NCI-H460 1.92 µM | HCC 2998 3.34 µM | SK-OV-3 1.41 µM | T47D 4.18 µM | PC-3 1.43 µM | OVCAR-8 7.19 µM | HOP-92 31.3 µM | SN12C 4.65 µM | LOX IMVI 4.12 µM | RPMI-8226 1.24 µM
1.85 µM: HCT-15

COc1c2cc(C(C)(C)C)cc1Cc1cccc(c1OCc1cccc([N+](=O)[O-])c1)Cc1cc(C(C)(C)C)cc(c1OC)Cc1cccc(c1OCc1cccc([N+](=O)[O-])c1)Cc1cc(C(C)(C)C)cc(c1OC)Cc1cccc(c1OCc1cccc([N+](=O)[O-])c1)C2
active: BT-549 0.005 µM
> 50 µM: HCT-15
inactive: CAKI-1 > 50 µM | SK-MEL-5 > 50 µM | DU-145 > 50 µM | SK-MEL-2 > 50 µM | MOLT-4 > 50 µM | COLO 205 > 50 µM | NCI-H460 > 50 µM | HCC 2998 > 50 µM | T47D > 50 µM | PC-3 > 50 µM | OVCAR-8 > 50 µM | HOP-92 > 50 µM | SN12C > 50 µM | HT-29 > 50 µM | RPMI-8226 > 50 µM

O=C(Nc1cc(Cl)c(I)c(Cl)c1)C(F)(F)F
18 µM: HCT-15
inactive: BT-549 25.9 µM | CAKI-1 19.9 µM | SK-MEL-5 18.7 µM | DU-145 42 µM | MOLT-4 26.5 µM | COLO 205 21.5 µM | NCI-H460 27.1 µM | HCC 2998 20 µM | SK-OV-3 31 µM | T47D 25.8 µM | PC-3 31.1 µM | OVCAR-8 20.1 µM | HOP-92 20.3 µM | SN12C 35.5 µM | HT-29 19.8 µM | RPMI-8226 31.1 µM

COC(=O)[C@H](Cc1c[nH]c2ccccc12)NC(=O)c1ccc(CNC(=O)/C=C/c2cccc(Oc3ccccc3)c2)cc1
inactive: BT-549 39.9 µM | CAKI-1 > 100 µM | SK-MEL-5 30.3 µM | DU-145 > 100 µM | SK-MEL-2 18.9 µM | MOLT-4 9.06 µM | COLO 205 > 100 µM | TK-10 > 100 µM | NCI-H460 83 µM | HCC 2998 89.9 µM | SK-OV-3 > 100 µM | T47D > 100 µM | PC-3 > 100 µM | OVCAR-8 > 100 µM | HOP-92 20.2 µM | SN12C > 100 µM | HT-29 > 100 µM | RPMI-8226 62.4 µM
81.7 µM: HCT-15

CC/C(N)=N\NC(=O)OC(C)(C)C
inactive: BT-549 > 100 µM | CAKI-1 > 100 µM | SK-MEL-5 > 100 µM | DU-145 > 100 µM | SK-MEL-2 > 100 µM | MOLT-4 > 100 µM | COLO 205 > 100 µM | TK-10 > 100 µM | HCC 2998 > 100 µM | SK-OV-3 > 100 µM | T47D > 100 µM | PC-3 > 100 µM | OVCAR-8 > 100 µM | HOP-92 > 100 µM | SN12C > 100 µM | LOX IMVI > 100 µM | HT-29 > 100 µM | RPMI-8226 > 100 µM
> 100 µM: HCT-15

CCC/C=C/C=C/C(=O)OC1C(C)C2(O)C3C=C(C)C(=O)C3CC(COC(C)=O)=CC2C2C(C)(C)C12OC(=O)C(C)C (centres undefined)
active: CAKI-1 0.83 µM | MOLT-4 0.966 µM | COLO 205 0.197 µM | HCC 2998 0.329 µM
inactive: BT-549 20.7 µM | SK-MEL-5 1.84 µM | DU-145 29.6 µM | SK-MEL-2 18.4 µM | TK-10 13.5 µM | NCI-H460 3.08 µM | SK-OV-3 53.1 µM | T47D 18.5 µM | PC-3 11.6 µM | OVCAR-8 22.8 µM | HOP-92 8.81 µM | SN12C 11 µM | LOX IMVI 19.7 µM | HT-29 12.1 µM | RPMI-8226 11.8 µM

COc1ccc(-n2c(SC(CN3CCOCC3)CN3CCCC3=O)nc3ccccc3c2=O)cc1 (centres undefined)
> 100 µM: HCT-15
inactive: BT-549 > 100 µM | CAKI-1 43.7 µM | SK-MEL-5 > 100 µM | DU-145 > 100 µM | SK-MEL-2 > 100 µM | MOLT-4 90.8 µM | COLO 205 > 100 µM | TK-10 95.1 µM | NCI-H460 > 100 µM | HCC 2998 > 100 µM | SK-OV-3 > 100 µM | T47D > 100 µM | PC-3 > 100 µM | OVCAR-8 > 100 µM | HOP-92 > 100 µM | SN12C > 100 µM | HT-29 > 100 µM | RPMI-8226 > 100 µM
